What was measured:
[1] = system: HCT-116 human colon carcinoma cell; assay: Cytotoxic activity using HCT-116 human colon carcinoma cell; format: cell-based; details: compounds purified by semi-preparative HPLC; cell line not restated
[2] = phase II human clinical trials; cited from earlier work
murine leukemia cells = details: cited from earlier work
[3] = system: herpes simplex virus type 1; details: DNA and RNA viruses such as herpes simplex virus type 1; cited from earlier work

Row | Compound | concentration at which strong cytotoxic activity was shown [1] [ng/mL] | toxicity in human subjects [2] | activity against murine leukemia cells (murine leukemia cells) | antiviral activity [3]
1 | CC[C@H](C)[C@H]1NC(=O)[C@@H](NC(=O)[C@@H](CC(C)C)N(C)C(=O)[C@@H]2CCCN2C(=O)C(C)O)[C@@H](C)OC(=O)[C@H](Cc2ccc(OC)cc2)N(C)C(=O)[C@@H]2CCCN2C(=O)[C@H](CC(C)C)NC(=O)[C@@H](C)C(=O)[C@H](C(C)C)OC(=O)C[C@@H]1O (some centres unmarked) [didemnin B] | 0.074 | high toxicity | strong activity | strong antiviral agent
2 | nordidemnin B | 0.074 |  |  | 

— patent publication US9644005B2, “Didemnin biosynthetic gene cluster in Tistrella mobilis” (King Abdullah University of Science and Technology, priority 2011, dated 2017)
